Where two headings read alike, the source gives them in different places.

Inhibition data for 15 compounds are collected here from patent publication US10053468B2, “Heterocyclic compound” (TAKEDA PHARMACEUTICAL COMPANY LIMITED, priority 2013, dated 2018).

The target of assay [1] is T1, RORγt (Homo sapiens, UniProt P51449).
T1 sequence (P51449 1-497 isoform P51449-2): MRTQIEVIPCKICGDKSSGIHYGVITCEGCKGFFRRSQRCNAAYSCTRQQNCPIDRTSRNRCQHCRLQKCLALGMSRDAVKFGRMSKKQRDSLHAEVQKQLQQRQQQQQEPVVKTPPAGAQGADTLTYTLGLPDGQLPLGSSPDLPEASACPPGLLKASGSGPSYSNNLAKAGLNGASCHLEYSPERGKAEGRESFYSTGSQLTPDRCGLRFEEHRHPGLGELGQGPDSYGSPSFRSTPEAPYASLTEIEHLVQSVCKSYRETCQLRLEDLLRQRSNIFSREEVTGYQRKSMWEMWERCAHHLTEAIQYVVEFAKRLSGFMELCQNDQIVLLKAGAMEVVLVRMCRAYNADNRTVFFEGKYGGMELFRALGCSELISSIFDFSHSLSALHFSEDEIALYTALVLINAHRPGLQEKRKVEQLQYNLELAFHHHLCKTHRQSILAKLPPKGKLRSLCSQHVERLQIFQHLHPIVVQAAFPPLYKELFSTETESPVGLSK
Put plainly: Jurkat reporter test (human IL-17 ROR response element luciferase, RORγt vector). To be noted: read-out: Luminescence level inhibitory rate at test compound 3 μM (%). It counts as cell-based. The procedure:
The Jurkat cells used for the reporter test were cultured in a culture medium (RPMI (Invitrogen), 10% FCS (AusGeneX), 100 U/mL penicillin, 100 μg/mL streptomycin). On the day of the test, 4×10^7 cells were recovered by a centrifugal operation (1000 rpm, 5 min.) and suspended in PBS (phosphate buffered saline) (Invitrogen). Thereafter, the cells were recovered again by a centrifugal operation, and suspended in 2 mL of R buffer (NEON transfection kit, Invitrogen). […] Gene transfer was performed by Electroporation apparatus (NEON, Invitrogen) under the conditions of pulse voltage 1350 V, interval 10 milliseconds, number of times 3. The cells after gene transfer were suspended in 40 mL of a reaction medium (RPMI, 10% Lipid reduced FCS (HyClone), 10 mM HEPES (pH 7.5), 100 U/mL penicillin, 100 μg/mL streptomycin, 5 μM lovastatin), and plated in a 96 well plate by 90 μL. A test compound diluted with the reaction medium was added by 10 μL, and the cells were cultured overnight in an incubator. Bright-Glo (Promega) was added by 100 μL, and the mixture was stirred at room temperature for 10 min, and the luminescence level was measured by Envision (PerkinElmer).

The target of assay [2] is T1, RORγt. In words: RORγt binding test using fluorescent-labeled cholesterol (TR-FRET). As to conditions: read-out: Binding inhibitory rate of fluorescent-labeled cholesterol to RORγt at test compound 1 μM (%). The procedure: RORγt Binding Test Using Fluorescent-labeled Cholesterol
The binding activity of the test compound to RORγt was measured by a time resolved fluorescence resonance energy transfer method (TR-FRET) utilizing histidine-tagged RORγt, fluorescent-labeled cholesterol (BODIPY-cholesterol, AVIVA), and terbium-labeled anti-histidine tag antibody (Invitrogen). First, a test compound diluted with an assay buffer (20 mM Tris-HCl (pH 7.5), 100 mM NaCl, 1 mM DTT, 0.1% BSA) was added to a 384 well plate by 3 μL. Then, RORγt diluted with an assay buffer to 240 nM was added by 3 μL, after which fluorescent-labeled cholesterol diluted with the assay buffer to 12 μM was added by 3 μL, and the mixture was stood at room temperature for 20 min. Thereafter, a terbium-labeled anti-histidine tag antibody diluted with the assay buffer to 8 nM was added by 3 μL. The mixture was stood at room temperature for 20 min, and fluorescence intensity (excitation wavelength 320 nm, fluorescence wavelength 520 nm, delay time 100 microseconds) was measured by Envision (PerkinElmer).

The target in assay [3] is T1, RORγt. Put plainly: Cofactor recruitment test (Alpha Screen, biotinylated SRC-1 peptide). The class given is biochemical. To be noted: read-out: Signal value inhibitory rate at test compound 1 μM (%). As to the method:
Cofactor Recruitment Test
Cofactor recruitment test was performed by Alpha Screen (Histidine Detection Kit, PerkinElmer) method. First, a test compound was diluted with an assay buffer (50 mM Tris-HCl (pH 7.5), 50 mM KCl, 1 mM DTT, 0.1% BSA) and added to a 384 well plate by 5 μL. […] The mixture was stood in a dark place for 1 hr, and the signal value was measured by Envision (PerkinElmer).

The mark [4] stands for this setting: test compound 3 μM, Jurkat cells.

In the case of `COc1ccc2c(c1)CCN(C(=O)CC#N)[C@H]2C(=O)Nc1cc(F)c(C(C)(C)C)c(F)c1` [Example 84, (1R)-N-(4-tert-butyl-3,5-difluorophenyl)-2-(cyanoacetyl)-6-methoxy-1,2,3,4-tetrahydroisoquinoline-1-carboxamide], the inhibition at 3 µM on RORγt [1] (setting [4]) is 100%. The inhibition at 1 µM worked out at 101% at RORγt [2] and 92% at RORγt [3].

Take `COc1ccc2c(c1)CCN(C(=O)Cc1cc(O)no1)[C@H]2C(=O)Nc1cc(F)c([Si](C)(C)C)c(F)c1` [Example 85, (1R)-N-(3,5-difluoro-4-(trimethylsilyl)phenyl)-2-((3-hydroxy-1,2-oxazol-5-yl)acetyl)-6-methoxy-1,2,3,4-tetrahydroisoquinoline-1-carboxamide]: the inhibition at 3 µM at RORγt [1] (Jurkat) is 101%. Moreover, the inhibition at 1 µM came out at 103% on RORγt [2] and 99% at RORγt [3].

On to `CC[Si](C)(C)c1c(F)cc(NC(=O)[C@H]2c3ccc(OC)cc3CCN2C(=O)CCC(=O)O)cc1F` [Example 87, 4-((1R)-1-((4-(ethyl (dimethyl)silyl)-3,5-difluorophenyl)carbamoyl)-6-methoxy-3,4-dihydroisoquinolin-2 (1H)-yl)-4-oxobutanoic acid], for which, at RORγt [1] (Jurkat), the inhibition at 3 µM came to 102%. For the same compound, the inhibition at 1 µM on RORγt [2] came out at 102%; on RORγt [3], 98%.

Turning to `CC[Si](C)(C)c1c(F)cc(NC(=O)[C@H]2c3ccc(OC)nc3CCN2C(=O)Cc2cc(O)no2)cc1F` [Example 113, (5R)-N-(4-(ethyl (dimethyl)silyl)-3,5-difluorophenyl)-6-((3-hydroxy-1,2-oxazol-5-yl)acetyl)-2-methoxy-5,6,7,8-tetrahydro-1,6-naphthyridine-5-carboxamide], the inhibition at 3 µM at RORγt [1] (Jurkat) came to 101%. Further, the results for the inhibition at 1 µM at RORγt [2] and at RORγt [3] were 104% and 99%, respectively.

In the case of `COc1ccc2c(n1)CCN(C(=O)c1cc(O)no1)[C@H]2C(=O)Nc1cc(F)c([Si](C)(C)C)c(F)c1` [Example 122, (5R)-N-(3,5-difluoro-4-(trimethylsilyl)phenyl)-6-((3-hydroxy-1,2-oxazol-5-yl)carbonyl)-2-methoxy-5,6,7,8-tetrahydro-1,6-naphthyridine-5-carboxamide], the inhibition at 3 µM at RORγt [1] (Jurkat) came out at 103%. Besides, the inhibition at 1 µM on RORγt [2] worked out at 102%; on RORγt [3], 99%.

Turning to `COc1ccc2c(n1)CCN(C(=O)Cc1cc(O)no1)[C@H]2C(=O)Nc1cc(F)c([Si](C)(C)C)c(F)c1` [Example 124, (5R)-N-(3,5-difluoro-4-(trimethylsilyl)phenyl)-6-((3-hydroxy-1,2-oxazol-5-yl)acetyl)-2-methoxy-5,6,7,8-tetrahydro-1,6-naphthyridine-5-carboxamide], on RORγt [1] (Jurkat), the inhibition at 3 µM stood at 102%. Further, the figures for the inhibition at 1 µM on RORγt [2] and at RORγt [3] were 101% and 99%, respectively.

Regarding `CCOc1ccc2c(n1)CCN(C(=O)Cc1cc(O)no1)[C@H]2C(=O)Nc1cc(F)c([Si](C)(C)C)c(F)c1` [Example 128, (5R)-N-(3,5-difluoro-4-(trimethylsilyl)phenyl)-2-ethoxy-6-((3-hydroxy-1,2-oxazol-5-yl)acetyl)-5,6,7,8-tetrahydro-1,6-naphthyridine-5-carboxamide], at RORγt [1] (Jurkat), the inhibition at 3 µM came out at 103%. Besides, the inhibition at 1 µM at RORγt [2] turned out to be 103%; at RORγt [3], 100%.

On to `CCOc1ccc2c(n1)CCN(C(=O)c1cc(O)no1)[C@H]2C(=O)Nc1cc(F)c2c(c1)CCC2(C)C` [Example 145, (5R)-2-ethoxy-N-(7-fluoro-1,1-dimethyl-2,3-dihydro-1H-inden-5-yl)-6-((3-hydroxy-1,2-oxazol-5-yl)carbonyl)-5,6,7,8-tetrahydro-1,6-naphthyridine-5-carboxamide], for which the inhibition at 3 µM at RORγt [1] (setting [4]) was 100%. Further, the values for the inhibition at 1 µM at RORγt [2] and on RORγt [3] were 102% and 92%, respectively.

For the compound `CCOc1ccc2c(n1)CCN(C(=O)c1cc(O)no1)[C@H]2C(=O)Nc1ccc([Si](C)(C)C)c(F)c1` [Example 149, (5R)-2-ethoxy-N-(3-fluoro-4-(trimethylsilyl)phenyl)-6-((3-hydroxy-1,2-oxazol-5-yl)carbonyl)-5,6,7,8-tetrahydro-1,6-naphthyridine-5-carboxamide], the inhibition at 3 µM on RORγt [1] (Jurkat) came to 103%. For the same compound, the inhibition at 1 µM turned out to be 103% on RORγt [2] and 99% at RORγt [3].

`COc1ccc2c(c1)CCN(C(=O)c1cc(O)no1)[C@H]2C(=O)Nc1cc(F)c(C(C)(C)COCC2CC2)c(F)c1` [Example 158, (1R)-N-(4-(1-(cyclopropylmethoxy)-2-methylpropan-2-yl)-3,5-difluorophenyl)-2-((3-hydroxy-1,2-oxazol-5-yl)carbonyl)-6-methoxy-1,2,3,4-tetrahydroisoquinoline-1-carboxamide]: at RORγt [1] (setting [4]), the inhibition at 3 µM was determined as 93%. The inhibition at 1 µM worked out at 101% on RORγt [2] and 76% at RORγt [3].

As to `COc1ccc2c(c1)CCN(C(=O)c1cc(O)no1)[C@H]2C(=O)Nc1cc(F)c(C(C)(C)COCC(F)F)c(F)c1` [Example 160, (1R)-N-(4-(1-(2,2-difluoroethoxy)-2-methylpropan-2-yl)-3,5-difluorophenyl)-2-((3-hydroxy-1,2-oxazol-5-yl)carbonyl)-6-methoxy-1,2,3,4-tetrahydroisoquinoline-1-carboxamide], the inhibition at 3 µM at RORγt [1] (setting [4]) came to 98%. The results for the inhibition at 1 µM on RORγt [2] and at RORγt [3] were 100% and 82%, respectively.

Consider `COc1ccc2c(c1)CCN(C(=O)CCCC(=O)O)[C@H]2C(=O)Nc1cc(F)c(C(C)(C)COCC2CC2)c(F)c1` [Example 161, 5-((1R)-1-((4-(1-(cyclopropylmethoxy)-2-methylpropan-2-yl)-3,5-difluorophenyl)carbamoyl)-6-methoxy-3,4-dihydroisoquinolin-2 (1H)-yl)-5-oxopentanoic acid], for which the inhibition at 3 µM at RORγt [1] (setting [4]) stood at 90%. Further, the inhibition at 1 µM on RORγt [2] worked out at 100%; at RORγt [3] it was 76%.

As for `COc1ccc2c(c1)CCN(C(=O)CCCC(=O)O)[C@H]2C(=O)Nc1cc(F)c(C(C)(C)COCC(F)F)c(F)c1` [Example 162, 5-((1R)-1-((4-(1-(2,2-difluoroethoxy)-2-methylpropan-2-yl)-3,5-difluorophenyl)carbamoyl)-6-methoxy-3,4-dihydroisoquinolin-2(1H)-yl)-5-oxopentanoic acid], the inhibition at 3 µM on RORγt [1] (setting [4]) was 95%. For the same compound, the inhibition at 1 µM on RORγt [2] amounted to 99%; on RORγt [3], 82%.

Take `CCOc1ccc2c(c1)CCN(C(=O)CCCC(=O)O)[C@H]2C(=O)Nc1cc(F)c(C(C)(C)COC)c(F)c1` [Example 164, 5-((1R)-1-((3,5-difluoro-4-(1-methoxy-2-methylpropan-2-yl)phenyl)carbamoyl)-6-ethoxy-3,4-dihydroisoquinolin-2(1H)-yl)-5-oxopentanoic acid]: the inhibition at 3 µM at RORγt [1] (setting [4]) was found to be 101%. The inhibition at 1 µM on RORγt [2] was found to be 101%; on RORγt [3], 96%.

Take `CCOc1ccc2c(c1)CCN(C(=O)Cc1cc(O)no1)[C@H]2C(=O)Nc1cc(F)c(C(C)(C)COC)c(F)c1` [Example 165, (1R)-N-(3,5-difluoro-4-(1-methoxy-2-methylpropan-2-yl)phenyl)-6-ethoxy-2-((3-hydroxy-1,2-oxazol-5-yl)acetyl)-1,2,3,4-tetrahydroisoquinoline-1-carboxamide]: on RORγt [1] (setting [4]), the inhibition at 3 µM was found to be 101%. In addition, the inhibition at 1 µM was determined as 101% on RORγt [2] and 96% at RORγt [3].
